ChEMBL document CHEMBL1201862, “PubChem BioAssay data set” (2004)
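Each compound was tested at five concentrations against cells in 96-well plates for 48 hours. GI50: concentration for 50% inhibition of growth.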 The source made the active and inactive calls. No stated cut-off is given here; in the data, active = GI50 up to about 1.1 µM and inactive = higher.

Experiments:
Assay in all cases: NCI-60 cell line screen, 48 h
SNB-75 = tested on: SNB-75
MCF7 = tested on: MCF7
OVCAR-8 = tested on: OVCAR-8
M14 = tested on: M14
EKVX = tested on: EKVX
UACC-62 = tested on: UACC-62
SNB-19 = tested on: SNB-19
HL-60 = tested on: HL-60
NCI-H23 = tested on: NCI-H23
KM12 = tested on: KM12
A498 = tested on: A498
T47D = tested on: T47D
BT-549 = tested on: BT-549
A549 = tested on: A549
MOLT-4 = tested on: MOLT-4
SK-OV-3 = tested on: SK-OV-3
SF-268 = tested on: SF-268
UO-31 = tested on: UO-31
MDA-MB-435 = tested on: MDA-MB-435
OVCAR-4 = tested on: OVCAR-4

Measured: GI50

COc1cc(OC)c2c(=O)c(OC)c(-c3ccc4c(c3)OCO4)oc2c1OC
inactive: SNB-75 > 100 µM | MCF7 > 100 µM | OVCAR-8 > 100 µM | M14 > 100 µM | EKVX 47 µM | UACC-62 98.9 µM | SNB-19 > 100 µM | HL-60 6.82 µM | NCI-H23 > 100 µM | KM12 > 100 µM | A498 > 100 µM | T47D 41.8 µM | BT-549 > 100 µM | A549 > 100 µM | MOLT-4 78.5 µM | SK-OV-3 > 100 µM | SF-268 > 100 µM | UO-31 > 100 µM | MDA-MB-435 > 100 µM

CC(C)N/C(=N\C#N)NS(=O)(=O)c1cnccc1NC1CCCCCCC1
inactive: OVCAR-4 > 100 µM | SNB-75 > 100 µM | MCF7 > 100 µM | OVCAR-8 > 100 µM | M14 > 100 µM | EKVX > 100 µM | UACC-62 > 100 µM | SNB-19 > 100 µM | NCI-H23 > 100 µM | KM12 > 100 µM | A498 > 100 µM | T47D > 100 µM | BT-549 > 100 µM | A549 > 100 µM | MOLT-4 > 100 µM | SK-OV-3 > 100 µM | SF-268 > 100 µM | UO-31 > 100 µM | MDA-MB-435 > 100 µM

OC(/C(=N/c1ccccc1)c1ccccc1)c1ccccc1 (stereo not drawn)
inactive: OVCAR-4 10.2 µM | SNB-75 5.6 µM | MCF7 5.62 µM | M14 4.8 µM | EKVX 2.48 µM | UACC-62 3.57 µM | SNB-19 6.52 µM | HL-60 2.94 µM | NCI-H23 4.4 µM | KM12 2.72 µM | A498 16.1 µM | T47D 5.62 µM | BT-549 2.68 µM | A549 11.3 µM | MOLT-4 6.62 µM | SK-OV-3 22.2 µM | SF-268 4.99 µM | UO-31 18 µM | MDA-MB-435 2.75 µM

CC(C)(C)c1cc(C2=NNC(c3ccccc3)C2)cc(C(C)(C)C)c1O (stereo not drawn)
inactive: OVCAR-4 14.2 µM | SNB-75 10.3 µM | MCF7 13.8 µM | OVCAR-8 16.7 µM | M14 17.2 µM | EKVX 16.1 µM | UACC-62 13.5 µM | SNB-19 18 µM | NCI-H23 17.2 µM | KM12 13.6 µM | A498 15.3 µM | T47D 10.2 µM | BT-549 17.1 µM | A549 15.3 µM | MOLT-4 16.6 µM | SK-OV-3 18.5 µM | SF-268 17 µM | UO-31 15 µM | MDA-MB-435 12.8 µM

C=CCOc1ccc2c(C)cc(=O)oc2c1C
inactive: OVCAR-4 96.4 µM | SNB-75 52.6 µM | MCF7 38.5 µM | OVCAR-8 56.8 µM | M14 46.5 µM | EKVX 27.4 µM | UACC-62 82.6 µM | SNB-19 61.4 µM | HL-60 32.4 µM | NCI-H23 > 100 µM | KM12 59.7 µM | A498 31.5 µM | T47D 47.9 µM | BT-549 32 µM | A549 50.7 µM | MOLT-4 35.1 µM | SF-268 55.3 µM | UO-31 29.5 µM | MDA-MB-435 44.2 µM

COC(=O)C1(C(=O)OC)N=C(C)OC1/C=C/c1ccccc1 (stereo not drawn)
inactive: OVCAR-4 > 100 µM | SNB-75 > 100 µM | MCF7 > 100 µM | OVCAR-8 > 100 µM | M14 > 100 µM | EKVX > 100 µM | UACC-62 > 100 µM | SNB-19 > 100 µM | HL-60 > 100 µM | NCI-H23 > 100 µM | KM12 > 100 µM | A498 > 100 µM | T47D > 100 µM | BT-549 > 100 µM | A549 > 100 µM | MOLT-4 > 100 µM | SK-OV-3 > 100 µM | UO-31 > 100 µM | MDA-MB-435 > 100 µM

O=C1NCC(NC(=O)C(F)(F)F)c2c(Br)sc(Br)c21 (stereo not drawn)
inactive: OVCAR-4 > 100 µM | SNB-75 24.3 µM | MCF7 > 100 µM | OVCAR-8 > 100 µM | M14 > 100 µM | EKVX > 100 µM | UACC-62 > 100 µM | SNB-19 > 100 µM | NCI-H23 > 100 µM | KM12 > 100 µM | A498 > 100 µM | T47D > 100 µM | BT-549 > 100 µM | A549 > 100 µM | MOLT-4 > 100 µM | SK-OV-3 > 100 µM | SF-268 > 100 µM | UO-31 > 100 µM | MDA-MB-435 > 100 µM
